According to patent US10907212B2, “Inhibitors of cell adhesion” (Regents of the University of Minnesota, priority 2016, dated 2021):
Where no end group is shown, it is not given here.

Legend:
[1] = tested on: ovarian cancer cell aggregation and spheroid formation; assay: Spheroid assay for peptides (visual scale +1 to +5); assay type: cell-based, human; details: visual scale of +1 to +5; for Spheroid-24: 24 hrs, Control = 2; for Spheroid-48: 48 hrs, Control = 4
Description: Spheroids were formed from the NIH:OVCAR5 cell lines described above using the liquid overlay method. One milliliter of a single cell suspension was seeded at a concentration of 50,000 cells/ml in OptiMEM® media, into 24-well tissue culture plates coated with 0.5% Seakem agarose (in complete RPMI-1640). Plates were incubated at 37° C. in a humidified incubator with 5% CO2. At various time points up to 5 days, the plates were removed from the incubator and the spheroids were photographed with a Nikon CoolPix digital camera mounted on an Olympus CK2 inverted microscope with a 4× objective. The size of the spheroids was determined using the measure tool in Adobe Photoshop. The largest spheroids were quantified (20-90 spheroids/well), in a minimum of 8 wells, for a total of >300 spheroids per cell type.
The clinical relevance is that by blocking the formation of spheroids, the cells will be more sensitive to chemotherapy (which targets the single cells that proliferate more rapidly than spheroids).
The spheroid assay for peptides 1-30 were scored using a visual scale of +1 to +5. The controls were scored at +2 (24 hrs) and +4 (48 hrs). […] It may be harder to visually assess the size at 24 hours, since the spheroids are relatively small, but and perhaps some of the peptides are affecting cell division, and that is why the spheroids are smaller than the controls at 48 hours, but not 24 hrs (this can be easily assayed with an MTT assay).

[2] = tested on: nectin 4 protein on NIH:OVCAR-5 cells; assay: Effect of peptides on anti-Nectin-4 antibody binding to cells as determined by flow cytometry; assay type: cell-based, human; details: for IgG MFI: IgG control primary antibody; for nectin-4 antibody binding compared to untreated control cells (in words): flow cytometry; for Flow binding: summary table, Nectin-4 antibody binding relative to control = 100
Description: Confluent monolayers of cells were detached from 75 cm^2 tissue culture flasks using Accutase cell dissociation buffer (Innovative Cell Technologies, San Diego, Calif.), washed, and labeled with mouse IgG or mAbs against Nectin-4 or Nectin-1 (2.5 μg/10^6 cells) in Flow Buffer [phosphate buffered saline (PBS) containing 2.5% newborn calf serum and 0.02% sodium azide] for 30 min at 4° C.. Cells were washed and incubated with goat anti-mouse IgG F(ab′)2 (Jackson ImmunoResearch, West Grove, Pa.), then washed again and incubated with streptavidin-allophycocyanin conjugate (Jackson ImmunoResearch, West Grove, Pa.) for 30 min each. Cells were washed and fixed in Flow Buffer containing 1% formaldehyde and analyzed in the University of Minnesota Flow Cytometry Resource with a BD Accuri™ C6 flow cytometer (BD Biosciences, San Jose, Calif.) using the Accuri™ software.
Briefly, NIH:OVCAR-5 cells that natively express a moderate amount of nectin 4 protein were incubated for 30 minutes in 150 μg/mL of soluble peptide in DMSO. After incubation, the cells were washed, and then triple antibody stained using mouse anti-nectin 4 (or IgG control) primary antibody, biotinylated goat anti-mouse secondary antibody, and streptavidin APC tertiary antibody. Finally, utilizing the University of Minnesota flow core's Accuri C6 flow cytometer, the relative antibody binding affinity for control and peptide-treated samples was quantitated and compared. Data was collected for each of the 57 peptides generated.

[3] = Run Five, 150 μg/mL peptide, 30 minutes, Control 5 = 17,768.90
[4] = Run Five, Control 5 = 2.142155332
[5] = Run Five, antibody binding relative to Control 5 = 100
[6] = Run One, 150 μg/mL peptide, 30 minutes, Control 1 = 15,015
[7] = Run One, 150 μg/mL peptide, 30 minutes, Control 1 = 1,670
[8] = Run One, antibody binding relative to Control 1 = 100.00
[9] = Run Four, 150 μg/mL peptide, 30 minutes, Control 4 = 9,631.58
[10] = Run Four, Control 4 = 9.387504873
[11] = Run Four, antibody binding relative to Control 4 = 100

Substance | Spheroid-24 [1] | Spheroid-48 [1] | nectin-4 antibody binding compared to untreated control cells (in words) ([2]; 150 μg/mL peptide) | Flow binding [2] [%] | N4 MFI [2, 6] | IgG MFI [2, 7] | N4 MFI/IgG MFI ([2]; Run One, Control 1 = 8.99) | nectin-4 antibody binding, percent of control [2, 8] | further results
EAQNRTLFFKGPINY-NH2 (listed as Homo sapiens) [Peptide 52] | 1 | 2 | increased nectin-4 antibody | 138 | – | – | – | – | N4 MFI [2, 3]: 20,692.13; N4 MFI/IgG MFI [2, 4]: 2.717; IgG MFI ([2]; Run Five, Control 5 = 8,294.87): 7,617.02; nectin-4 antibody binding, percent of control [2, 5]: 138
ECRVSTFPAGSFQA-NH2 (listed as Homo sapiens) [Peptide 9] | – | 3 | reduction in nectin-4 antibody binding | 50 | 8,578 | 1,886 | 4.55 | 50.15 | –
EGSPAPSVTWDTEV-NH2 (listed as Homo sapiens) [Peptide 13] | 1 | 2 | – | – | 15,623 | 3,720 | 4.20 | 89.19 | –
ELALLHSKYGLHVS-NH2 (listed as Homo sapiens) [Peptide 5] | – | 3 | – | – | 11,668 | 1,711 | 6.82 | 74.61 | –
ESLTLNVQYEPE-NH2 (listed as Homo sapiens) [Peptide 47] | 1 | 2 | – | – | – | – | – | – | N4 MFI [2, 9]: 11,949.18; N4 MFI/IgG MFI [2, 10]: 6.679; IgG MFI ([2]; Run Four, Control 4 = 1,026): 1789; nectin-4 antibody binding, percent of control [2, 11]: 118.1
EVKGTTSSRSFKHS-NH2 (listed as Homo sapiens) [Peptide 14] | 1 | 2 | – | – | 13,217 | 3,125 | 4.23 | 75.62 | –
FANPLPSVKITQVTW-NH2 (listed as Homo sapiens) [Peptide 32] | – | 2 | reduction in nectin-4 antibody binding | 13 | – | – | – | – | N4 MFI ([2]; Run Three, 150 μg/mL peptide, 30 minutes, Control 3 = 13,070.20): 2,542.31; N4 MFI/IgG MFI ([2]; Run Three, Control 3 = 9.83): 2.47; IgG MFI ([2]; Run Three, Control 3 = 1330): 1029; nectin-4 antibody binding, percent of control ([2]; Run Three, antibody binding relative to Control 3 = 100.00): 12.89
GQDDKVLVATCTSANG-NH2 (listed as Homo sapiens) [Peptide 41] | 3 | – | – | – | – | – | – | – | N4 MFI [2, 9]: 9,040.73; N4 MFI/IgG MFI [2, 10]: 8.302; IgG MFI ([2]; Run Four, Control 4 = 1,026): 1,089; nectin-4 antibody binding, percent of control [2, 11]: 92.4
HGRRAGPVPTA-NH2 (listed as Homo sapiens) [Peptide 56] | – | 3 | – | – | – | – | – | – | N4 MFI [2, 3]: 21,060.14; N4 MFI/IgG MFI [2, 4]: 2.035; IgG MFI ([2]; Run Five, Control 5 = 8,294.87): 10,346.61; nectin-4 antibody binding, percent of control [2, 5]: 113.1
HSQVVQVNDSMYGF-NH2 (listed as Homo sapiens) [Peptide 30] | – | 3 | erroneous/outlier due to solubility issues | 321 | – | – | – | – | N4 MFI ([2]; Run Two, 150 μg/mL peptide, 30 minutes, Control 2 = 49,491): 205,442; N4 MFI/IgG MFI ([2]; Run Two, Control 2 = 9.46): 3.24; IgG MFI ([2]; Run Two, Control 2 = 5,233): 63,394; nectin-4 antibody binding, percent of control ([2]; Run Two, antibody binding relative to Control 2 = 100.00): 320.95
